Source: patent US7033829B2, “Method to inhibit cell growth using oligonucleotides” (Trustees of Boston University, priority 2000, dated 2006)
Oligonucleotides are written 5' to 3', each unit as a sugar letter and its base; * is a phosphorothioate linkage, no mark a phosphodiester; rarer units and linkages stand in square brackets, end groups in braces. Plain capitals give the bases only. d = 2'-deoxy (DNA); {P} = phosphate

Columns and labels:
telomere length = assay: Mean telomere length in fibroblasts; type: cell-based, human; conditions: for MTL values: 40 μM, 5 days (diluent 10.59)
Procedure: Cells were plated at a density of 180,000 cells/ml in RPMI 1640 medium supplemented with 3% FBS. Cells were treated with 40 μM of either of the oligonucleotides for 72 hours. Cells were then collected, washed and fixed for 30 minutes in 4% paraformaldehyde and then permeabilized with 0.1% Triton X-100 for 2 minutes. The TUNEL assay was carried out with components and instructions of the In Situ Cell Death Detection Kit using fluorescein-labeled dUTP from Boehringer Mannheim. TUNEL-positive cells were detected by FACS analysis and confocal microscopy. Cellular Uptake of Oligonucleotides For confocal analysis, Jurkat cells were plated on Permanox chamber slides (Lab-Tek, Naperville, Ill.) and treated for 4 hours with fluorescein phosphoramidite (FAM)-labeled oligonucleotides (Research Genetics, Inc., Huntsville, Ala.). Adherent cells were fixed in 4% paraformaldehyde in PBS, stained with propidium iodide (PI) to identify nuclei, mounted with Slowfade reagent (Molecular Probes, Eugene, Oreg.), covered with a coverslip and stored at 4° C. in the dark. Uptake of the oligonucleotides was assessed in 5–10 μm sections with a Carl Zeiss LSM 510 confocal laser microscope. Computer images assign green to the FAM-oligonucleotides, red to PI, and yellow to co-localization of the signals. FACS analysis was performed on Jurkat cells identically treated with the FAM-oligonucleotides for 4 hours, then fixed in 0.5 ml of 4% paraformaldehyde overnight at 4° C. Fluorescence was measured on the FL-1 channel. Western Blot Analysis and Antibodies Western blot analysis was performed as previously described [Eller, M. S., et al., (1996), Proc Natl Acad Sci USA 93, 1087–1092]. Antibody Ab-6 (DO-1 clone, Oncogene Research Products, Cambridge, Mass.) detected p53; antibody KH95 (Santa Cruz Biotechnology, Inc., Santa Cruz, Calif.) detected E2F1; antibody Ab-4 (Oncogene Research products) detected p73. Phospho-p53 (serine 15) was detected using the #9284 polyclonal antibody and phospho-p95/Nbs1 (serine 343) was detected by a phospho-p95/Nbs1-specific polyclonal antibody, both antibodies from Cell Signaling Technology (Beverly, Mass.). p95/Nbs1 antibody (#NB-100-143, Novus Biologicals, Littleton, Colo.) and an actin antibody (I-19, Santa Cruz Biotechnology, Santa Cruz, Calif.) were also used. […] After the indicated times, total protein was collected and analyzed by 8% PAGE and western blot using a polyclonal antibody to p95/Nbs1 (#NB-100-143, Novus Biologicals, Littleton, Colo.). […] Telomere length was determined essentially as described by van Steensel and de Lange (van Steensel, B. and T. de Lange. 1997, Nature 385: 740–743) using the Telo TAGGG Telomere Length Assay from Roche Molecular Biochemicals (Indianapolis, Ind.) and the protocol supplied by the manufacturer. […]

[1] = test system: Human squamous carcinoma cell line SCC12F cells; assay: Cell growth / cell yield of SCC12F cells (Coulter counter); type: cell-based; conditions: for reduction of cell number: after 2 days, FIG. 14
Procedure: Human squamous carcinoma cell line SCC12F cells were maintained in primary keratinocyte medium (300 ml DME, 100 ml F-12 nutrient supplement, 50 ml 10× adenine, 50 ml fetal bovine serum, 5 ml penicillin/streptomycin stock, and 0.5 ml of 10 μg/ml epidermal growth factor and hydrocortisone to final concentration of 1.4 μg/ml) and dosed with either water (diluent), 100 μM pTpT (T2, Midland Certified Reagent Company, Midland, Tex.) or 100 μM pdApdA (A2). Cells were harvested before dosing (day 0), and 1, 3, 4, and 5 days after dosage, and were counted by Coulter™ counter. After harvesting, the cells were processed for total RNA isolation and were analyzed by Northern blot. Addition of a control deoxyadenine dinucleotide (pdApdA), a compound very similar to pTpT but not readily dimerized by UV irradiation, and therefore rarely excised during the course of UV-induced DNA repair, has no effect.
In a second experiment, SCC12F cells were cultured as described above. Two or three days after seeding, the preconfluent cultures were given fresh medium supplemented with either 100 μM T2 or diluent as a control. Cells were collected daily by trypsinization and counted by Coulter™ counter. The cell yield in cultures treated with T2 was reduced by […] compared to that of paired control cultures after five days (FIG. 2). This corresponds to 2.3 population doublings in this time for control cells, compared with 1 doubling for T2-treated cells.
pTpT was previously found to inhibit cell cycle progression, at least in part through activation of p53 and subsequent upregulation of the cyclin dependent kinase inhibitor p21. Cultures of the human keratinocyte line SCC12F were treated with pTpT, SEQ ID NO: 1, SEQ ID NO: 6 or diluent alone as a negative control, collected and counted 48 hours later and processed for northern blot analysis of p21 mRNA expression. […] Thus, the sequences of the present invention activate p53 and inhibit cell proliferation similar to the effect of pTpT.
Exposure of keratinocytes to UVB irradiation affects the expression of genes involved in cell cycle arrest, DNA repair and cytokine production. Single-stranded oligonucleotides sharing sequence homology with the telomere 3′ overhang, when introduced into cells, mimic these UV effects. To identify other genes that may be similarly modulated, cells of keratinocyte origin (SCC12F; a human epidermal squamous cell carcinoma line provided by Dr. James Rheinwald of Harvard University) were exposed to solar simulated irradiation (SSR) (20 mJ/cm^2, measured at 285±5 nm), to an 11-base oligonucleotide (pGTTAGGGTTAG; SEQ ID NO:5) homologous to the telomere overhang (T-oligo), or to a complementary sequence as control [pCTAACCCTAAC; (SEQ ID NO:9) control oligonucleotide]. […] These are mitochondrial-transcribed genes whose encoded proteins participate in cellular respiration.

With “pCTAACCCTAAC (DNA, 5' {P}, backbone not given here) [SEQ ID NO: 9, reference compound]” as the substance, how does the MTL values (telomere length) read?
Its MTL values is 10.45 kilobases.

Which “reduction of cell number” value [1] does the source give for “pGAGTATGAG (DNA, 5' {P}, backbone not given here) [SEQ ID NO: 1]” here?
The value was “approximately 50%”.

Which MTL values (telomere length) does the source give for “pGATCGATCGAT (DNA {P}-dGdAdTdCdGdAdTdCdGdAdT) [SEQ ID NO: 10, reference compound]” here?
Its MTL values is 10.22 kilobases.

How did the cellular proliferation ([1]; Example 27) turn out when “pGTTAGGGTTAG (DNA {P}-dGdTdTdAdGdGdGdTdTdAdG) [SEQ ID NO: 5]” was run?
Its cellular proliferation is “substantially inhibited cellular proliferation”.

And the MTL values (telomere length)?
The MTL values was 12.25 kilobases.

And the “increase in MTL” value (telomere length; 5-day experiment)?
The value was “approximately 20%”.

Which results are given for thymidine dinucleotide [pTpT]?
cell yield reduced compared to paired control cultures ([1]; 100 μM, after five days): 75%; cell growth rate ([1]; 100 μM, days 1, 3, 4, 5 after dosage): marked decreases in cell growth rate; population doublings ([1]; 100 μM, five days (control 2.3)): 1; reduction of cell number [1]: 40%
